The source of these data is article PMC9848257, “Design and synthesis of novel rigid dibenzo[b,f]azepines through ring closure technique as promising anticancer candidates against leukaemia and acting as selective topoisomerase II inhibitors and DNA intercalators” (Journal of Enzyme Inhibition and Medicinal Chemistry, 2023).

The IC50 is the concentration that inhibits the measured activity by half.

The subject of one series is leukaemia SR cells. Kind of series: Anti-proliferative effect against SR cell line (MTT assay). Format: cell-based. Conditions: Homo sapiens; leukaemia SR cells; unit as in head of Table 3; read-out: Cytotoxicity IC50, SR. The protocol: The anti-proliferative effect of the 5e counterpart against the SR cell line was estimated using the MTT assay protocol.
Depending on the previous results, the cytotoxic activity of the designed candidate 5e was then evaluated against leukaemia SR cells. Doxorubicin was also evaluated as a reference drug.
A general note: Tetrazolium dyes change colour on reduction, which living cells bring about.

Series [1] can be described thus: Liver enzymes (ALT, AST) in SEC-bearing mice. Format: in vivo, Swiss albino mice. The following applies: 6 mg/Kg B.W., IP. The protocol:
(§1) The full methodology of tumour induction, treatments, and blood measurements was carried out according to the described details in the supporting information (SI 5). Moreover, the experimental protocol was approved by the Research Ethics Committee at Suez Canal University (Approval number REC139/2022, Chemistry Department, Faculty of Science, Suez Canal University). […]
(§2) that were I.P. implanted into each normal mouse. SEC cells (1 × 10^6 tumor cells/mouse) were implanted subcutaneously into the right thigh of the hind limb.
(§3) The experimental animals were randomly divided into four groups. Group 1 served as the normal saline control. Group 2 served as the SEC control (1 × 10^6 cells/mouse). Group 3 served as the compound-treated group (6 mg/kg B.Wt., I.P.). Group 4 received the standard anticancer drug of […]
survival were recorded daily until the 24th day in both treated and control groups. At the end of experiment, the blood of each group was collected under light anesthesia for estimation of hematological and biochemical assays. The anesthetized animals were then sacrificed for evaluation of the antitumor activity and histopathological examination. […]
At the end of the experiment, animals from different groups were sacrificed, and blood samples were collected for determination of liver enzymes ALT, AST levels. Activities of aspartate aminotransferase (AST) and alanine aminotransferase (ALT) were evaluated using commercial kits (ELITech clinical systems, France). […]

Series [2] is described as follows: Cytotoxic effect against normal cell line. Format: cell-based. Conditions: human, normal cell line PSC-800-011; read-out: Cytotoxicity IC50, PSC-800-011. The protocol: Following, the cytotoxic effect of compound 5e against a normal cell line, PSC-800–011, was also assigned to evaluate the selectivity of the compound towards the cancer cell lines. […] However, the selectivity index (SI) of compound 5e was also calculated to confirm its selectivity. It was known that any sample that has an SI value higher than 3 will be considered to have high selectivity.

Series [3] has as its system Solid Ehrlich carcinoma (SEC). Put plainly: In vivo anti-tumour activity in SEC-bearing mice. The arrangement: species or system Swiss albino mice. The following applies: 6 mg/Kg B.W., IP. The protocol: as §1
SI 5.1. Animals and tumor cell line
Adult female Swiss albino mice purchased from Theodor Bilharzia Research Institute, Giza, Egypt, with an average body weight of (18-23) g was used. Mice were housed under constant conditions of 12 h light/dark cycle in a […], with free access to standard laboratory mice food and water.
All procedures related to care and maintenance of the animals were performed according to the international guiding principles for animal research and approved by Faculty of Science, Suez Canal University bioethics and animal ethics committee (Approval number REC-01-2022).
Solid Ehrlich carcinoma (SEC) were got from the National Cancer Institute (Cairo University, Egypt). The tumor cell line was proliferated in mice through serial intraperitoneal (I.P.) transplantation of a volume of 0.2 mL physiological saline contains 1 × 10^6 viable cells for 24 h. SEC cells were collected 7 days after I.P. implantation. The harvested cells were diluted with saline to obtain a concentration of 5 × 10^6 viable SEC cells/mL. A volume of 0.2 mL saline contains 1 × 10^6 SEC cells […]
as §2, §3
survival were recorded daily until the 24th day in both treated and control groups. At the end of experiment, the blood of each group was collected under light anesthesia for estimation of hematological and biochemical assays. The anesthetized animals were then sacrificed for evaluation of the antitumor activity and histopathological examination.
SI 5.2. Antitumor potentiality
It includes tumor volume, weight, and tumor inhibition ration (TIR%). Time interval measurements of tumor volume using digital Vernier caliper (Tricle Brand, Shanghai, China). Measure tumor length and width using clipper and then calculate tumor volume using formulations V = (L x W x W)/2, where V is tumor volume, W is tumor width, L is tumor length. While TIR% was calculated according to the following equation: […]. […]

Structures are written as SMILES.

Regarding `COc1cccc2c1C(=O)c1c(O)c3c(c(O)c1C2=O)C[C@@](O)(C(=O)CO)C[C@@H]3O[C@H]1C[C@H](N)[C@H](O)[C@H](C)O1` [Doxorubicin, reference compound], the IC50 in the series with leukaemia SR cells worked out at 3.78 ± 0.14 µM; in series [2] it was 12.8 ± 0.79 µM. This compound also showed an ALT in series [1] (SEC control 65.9 U/L) of 34.8 U/L. This compound also returned an AST in series [1] (SEC control 71 U/L) of 35.6 U/L. The same compound came in with a Solid tumour mass in series [3] (SEC control 226 mg) of 82.3 mg. In series [3] (SEC control 80.6 mm^3), this compound came in with a Tumour volume of 27.5 mm^3.
